{"source": "patent US9180183B2", "about": "“Phospholipid drug analogs” (Telormedix SA, priority 2010, dated 2015)", "key": {"[1]": {"assay": "Serum exposure after intravesical chronic treatment in mouse", "conditions": "intravesical, LLOQ 0.5 ng/ml", "description": "Serum samples were taken at time points: day 0, 2 hours, day 1, 24 hours, and day 6, 2 hours.\nSamples were evaporated and re-suspended in 70 microliters of acetonitrile/methanol 1:1."}, "[2]": {"tested_on": "recombinant protein antigens from Plasmodium falciparum and Mycobacterium ulcerans", "assay": "Pilot immunization study with adjuvanted protein antigens in mice", "type": "in vivo", "description": "A pilot immunization study was conducted using Compound A and SC12 adjuvanted protein antigens. The immunization experiments were performed with two recombinant proteins expressed in E. coli. One antigen was derived from the malaria parasite Plasmodium falciparum and the other one from Mycobacterium ulcerans, which cause the ulcerative skin disease Buruli ulcer."}, "[3]": {"tested_on": "HLA-DR+/CD11c+/CD123- mDCs", "assay": "FACS analysis of myeloid DC activation in whole blood", "type": "cell-based, human", "conditions": "24 hours; 0.1 and 0.5 uM; three donors", "description": "The FACS analysis for donor 1 and donor 2 was made on another day than donor 3. The compound concentrations were as follows:\nThe FACS analysis was used to identify whether the test compounds could induce activation of B cells, and two different subsets of dendritic cells, namely the myeloid CD11c+/CD123− DCs and the plasmacytoid CD11c−/CD123+ DCs. The following markers were studied to identify the activation status of the different subsets:\nThe FACS staining was performed according to the manufacturer's instructions. Lysis of red blood cells was performed before FACS staining in order to minimize auto-florescence. To include as many B cells and DCs in the study as possible the FACS analyses were performed on 500,000 cells in total for each staining. A P1 gate was set only to include relevant cells on FSC vs. SSC (see FIGS. 12-15). The results of the individual analysis were present as Mean Fluorescence Intensity\nThe analysis of myeloid DCs was based on HLA-DR+/CD11c+/CD123−cells, thus all analyzed cells was included in the HLA-DR+ (P3) gate and CD11c+/CD123− (Q4) gate (see gates in FIGS. 13-15)."}, "[4]": {"assay": "Intravenous pharmacokinetics in the mouse", "conditions": "IV bolus 1 mg/kg; for Plasma concentration Mean ± S.D.: LLOQ: 5 ng/ml", "description": "An IV bolus was administered into the caudal vein at a dose of 1 mg/kg in 5 ml. The compound weight was 2.08/10.04 ml. 24 mice were studied. Sampling was obtained by exsanguination under anesthesia, at 5, 15, 30, 60, 240, and 480 minutes, and at 24 hours. […] Animals were sacrificed using ethyl ether at the conclusion of the experiment.\nSample preparation: In a Sirocco filter plate, 100 microliters of plasma were added to 300 microliters of ACN/MeOH spiked with 5 microliters of IS (IV298 10 micrograms per ml) plus 10 microliters of 5% H3PO4. The plate was shaken for 10 minutes at 80 rpm and then filtered under vacuum for 5 minutes.\nAnalytical method: LC/MS/MS: Premiere XE, Eluent: water (A) MeOH (B) plus 0.1% HCOOH gradient. 15% B to 100% B from 0.1 to 0.5, then isocratic 100% B up to 1.5 minutes, flow 0.8 ml/min; Column Acquity UPLC BEH C18 1.7 microm 2.1×50 mm, injection volume of 5 microliters in a T column at 50° C. ESI positive, MRM, Extractor 5V; Capillary 3.5 kV; T source 115° C.; T desolv. 450° C.\nData analysis: Non-compartmental analysis WinNonlin 5.1; linear trapezoidal, uniform weight."}, "[5]": {"tested_on": "Cutaneous Squamous Cell Carcinoma (SCC) cell lines SCL-I, SCL-II, SCC-12, SCC-13", "assay": "Proapoptotic and cytotoxic effects on cutaneous SCC cell lines (real-time cell analysis, microscopy)", "type": "cell-based, human", "description": "SCC cells are grown under standard conditions (10% FBS).\nTime and dose dependency of effects on total cell numbers have been investigated by real-time cell analysis, which is based on continuous monitoring of electric conductance in microtiter wells (E-plates, Roche), which corresponds to the cell numbers. […] For these assays 4 cell lines should be used to obtain a representative overview on the effects on SCC cells."}, "CYP2C9": {"target": "CYP2C9 (Homo sapiens (Human), UniProt P11712)", "sequence (P11712 whole entry, looked up)": "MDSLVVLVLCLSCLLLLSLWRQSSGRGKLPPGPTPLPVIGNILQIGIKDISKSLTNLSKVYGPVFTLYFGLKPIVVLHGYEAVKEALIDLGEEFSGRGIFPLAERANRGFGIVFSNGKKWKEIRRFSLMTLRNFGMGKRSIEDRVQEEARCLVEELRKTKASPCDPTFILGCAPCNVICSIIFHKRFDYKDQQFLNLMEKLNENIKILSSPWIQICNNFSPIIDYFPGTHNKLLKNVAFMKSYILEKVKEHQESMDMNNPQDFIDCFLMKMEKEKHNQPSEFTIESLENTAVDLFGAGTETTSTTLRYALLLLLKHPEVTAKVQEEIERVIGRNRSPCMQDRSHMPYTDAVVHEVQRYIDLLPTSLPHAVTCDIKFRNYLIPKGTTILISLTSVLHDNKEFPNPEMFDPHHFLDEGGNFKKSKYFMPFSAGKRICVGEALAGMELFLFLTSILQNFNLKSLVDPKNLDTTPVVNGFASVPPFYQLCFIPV", "assay": "Fluorescent High Throughput P450 assay CYP2C9", "type": "in vitro ADME", "procedure": "Inhibition of the P450 isoforms was measured in specific assays using specific substrates that become fluorescent upon CYP metabolism. Compounds, dissolved in ACN (acetonitrile) (CYP2E1, CYP2C8, CYP2B6, CYP3A5) or DMSO (all remaining isoforms), were tested in duplicate (n=2) in concentration-response curves (eight concentrations) in a 96-well plate containing incubation/NADPH regenerating buffer. Specific isoenzymes and substrates were added and incubated at 37° C. Reactions were terminated at different times, depending on the assays, and plates read on a Fluoroskan Ascent at the appropriate emission/excitation wavelengths. Concentration-response curves performed in duplicate for known inhibitors for each isoenzyme were tested in every assay as positive control."}, "[6]": {"assay": "Single dose intravenous toxicity study in rats", "type": "in vivo, Sprague Dawley rat", "description": "An additional group, similarly composed, received the vehicle alone and acted as a control. […] Clinical signs were limited to piloerection and reduced activity, observed on the day of dosing.\nIn the main phase, 5 male and 5 female animals were dosed at 90 mg/kg and observed for a period of 14 days. A second group, similarly constituted, received the vehicle alone and acted as control. […] In addition, one male and one female dosed at 90 mg/kg were found dead on Day 2 of the study. Twitches, ataxia, piloerection, reduced activity and hunched posture were the major signs observed in animals before death. […] Piloerection was observed up to Day 3 of the study. A second group, similarly composed, was dosed at 80 mg/kg."}, "human PBMCs": {"tested_on": "human PBMCs", "assay": "IL-6 secretion in human PBMCs, two batches of Compound A and SC12", "type": "cell-based", "conditions": "5 months storage in DMSO at 4° C.", "procedure": "PBMCs were purified from two donors and plated into 96 well plates at 2×10^5 cells/well in RPMI media including human 2% heat inactivated AB serum, glutamine, Pen-strep and R-mercapto-ethanol. […] The conditioned media was removed for ELISA analyses for IL-6, and the EC50 value determined for each compound and each batch.\nAll compounds were tested in four concentrations (10-1-0, 1-0.01 micromolar).\nConcentrations of IL-6 were determined by ELISA from R&D Systems using the Microsoft Excel software. The results were analyzed in Graph Pad Prism in order to prepare dose-response curves, and for determination of EC50 values."}, "[7]": {"tested_on": "Salmonella typhimurium TA1535, TA1537, TA98, TA100", "assay": "Bacterial mutation assay, Salmonella typhimurium", "type": "cell-based", "conditions": "absence or presence of S9 metabolism", "description": "The five tester strains TA1535, TA1537, TA98, TA100 and WP2 uvrA were used. Experiments were performed both in the absence and presence of metabolic activation, using liver S9 fraction from rats pre-treated with phenobarbitone and betanaphthoflavone. SC12 was used as a solution in dimethylsulfoxide (DMSO)."}}, "note": "Values joined by “and” are separate entries in the source; they are usually repeats but may differ in a detail not shown here. Identical values can stand only once. “Also recorded” adds a separate entry of the source."}
{"compound": "CCCCCCCCCCCC(=O)OCC(COP(=O)(O)OCCNC(=O)c1ccc(Cn2c(=O)[nH]c3c(N)nc(OCCOC)nc32)cc1)OC(=O)CCCCCCCCCCC", "note": "(centres unmarked) [SC12]", "values": [{"measurement": "SC12 levels in serum, Mean ± S.D.", "setting": "[1]; Day 0, 2 hours", "value": "0.5 ± 0.5", "unit": "ng/mL"}, {"measurement": "SC12 levels in serum, individual mice", "setting": "[1]; Day 0, 2 hours", "value": "<LLOQ (2×) and 1.0 ng/ml and 0.5 ng/ml"}, {"measurement": "SC12 levels in serum, Mean ± S.D.", "setting": "[1]; Day 1, 24 hours", "value": "<LLOQ"}, {"measurement": "SC12 levels in serum, individual mice", "setting": "[1]; Day 1, 24 hours", "value": "<LLOQ"}, {"measurement": "SC12 levels in serum, Mean ± S.D.", "setting": "[1]; Day 6, 2 hours", "value": "<LLOQ"}, {"measurement": "SC12 levels in serum, individual mice", "setting": "[1]; Day 6, 2 hours", "value": "<LLOQ"}, {"measurement": "local side effects", "setting": "[2]; three s.c. immunizations with 10 nMol adjuvant", "value": "No local side effects"}, {"measurement": "IgG responses against the target antigens", "setting": "[2]; three s.c. immunizations, 20 micrograms antigen mixed with 10 nMol adjuvant, after the third immunization", "value": "developed IgG responses"}, {"measurement": "CCR7 expression in mDCs (MFI, in words)", "setting": "[3]", "value": "less potent stimulator of CCR7 expression"}, {"measurement": "CD80 expression in mDCs (MFI, in words)", "setting": "[3]", "value": "induced a noteworthy CD80 expression in all three donors"}, {"measurement": "CD86 expression in mDCs (MFI, in words)", "setting": "[3]", "value": "induces a weak CD86 expression in donor 2 and 3, but not in donor 1"}, {"measurement": "adverse behavioral effects", "setting": "[4]", "value": "No adverse behavioral effects"}, {"measurement": "Cl", "setting": "[4]; plasma", "value": 77.7, "unit": "mL/min/kg"}, {"measurement": "Clast", "setting": "[4]; plasma", "value": 6, "unit": "ng/mL"}, {"measurement": "MRT", "setting": "[4]; plasma", "value": 32, "unit": "min"}, {"measurement": "T ½", "setting": "[4]; plasma", "value": 130, "unit": "min"}, {"measurement": "Tlast", "setting": "[4]; plasma", "value": 120, "unit": "min"}, {"measurement": "Tmax", "setting": "[4]; plasma", "value": 5, "unit": "min"}, {"measurement": "Vss", "setting": "[4]; plasma", "value": 2.5, "unit": "L/kg"}, {"measurement": "Plasma concentration Mean ± S.D.", "setting": "[4]; 240 min", "value": "<LLOQ"}, {"measurement": "Plasma concentration Mean ± S.D.", "setting": "[4]; 480 min", "value": "<LLOQ"}, {"measurement": "Plasma concentration Mean ± S.D.", "setting": "[4]; 1440 min", "value": "<LLOQ"}, {"measurement": "morphological changes (microscopy)", "setting": "[5]; SCC cells, time of treatment 3d, 120 microM", "value": "cell detachment, morphological changes and inhibition of proliferation"}, {"measurement": "cell numbers (real-time cell analysis, electric conductance)", "setting": "[5]; cutaneous SCC cell lines", "value": "reduced cell numbers"}, {"measurement": "inhibition of CYP2C9 (in words)", "setting": "CYP2C9", "value": "weak inhibition"}, {"measurement": "mortality", "setting": "[6]; 76 mg/kg i.v., preliminary phase", "value": "No mortality occurred"}, {"measurement": "mortality and clinical signs", "setting": "[6]; 80 mg/kg i.v., main phase", "value": "No mortality occurred and no clinical signs were recorded"}, {"measurement": "clinical signs", "setting": "[6]; 85 mg/kg i.v., preliminary phase", "value": "Piloerection"}, {"measurement": "mortality and signs of toxicity", "setting": "[6]; 90 mg/kg i.v., main phase", "value": "induced mortality or significant signs of toxicity"}, {"measurement": "mortality", "setting": "[6]; 90 mg/kg i.v., preliminary phase", "value": "No mortality occurred"}, {"measurement": "mortality", "setting": "[6]; 100 mg/kg i.v., preliminary phase", "value": "Both animals died at dosing"}, {"measurement": "maximum tolerated dose", "setting": "[6]; single intravenous administration, rat", "value": 80, "unit": "mg/kg"}, {"measurement": "activity after storage (in words)", "setting": "human PBMCs", "value": "have not lost activity"}, {"measurement": "toxicity to tester strains", "setting": "[7]; toxicity test, 50.0-5000 micrograms/plate", "value": "No toxicity was observed"}, {"measurement": "reverse mutation / revertant colonies", "setting": "[7]; up to 5000 micrograms/plate", "value": "did not induce two-fold increases in the number of revertant colonies; also recorded: does not induce reverse mutation"}]}
